# Earlier results, collected in patent EP0268928A2, “Safened pesticidal dispersion resin compositions for controlling soil borne pests and process for the preparation thereof” (priority 1986, dated 1988).
# System: rats
# Details: technical grade
smiles,measurement,value
"CCOP(=S)(OCC)SCSCC [phorate, 0,0-diethyl-S-(ethylthiomethyl)phosphorodithioate]",acute oral LD50 value in rats,1.6-3.7 mg technical/kg
